US11780826B2 (Amgen Inc., priority 2017, dated 2023)

Test system: Bovine cardiac myofibrils
Experiment: In vitro model of dose-dependent myofibril ATPase modulation (AC1.4, pyruvate kinase/lactate dehydrogenase-coupled ATPase assay at pCa25)
Type: biochemical
Settings: concentration at which ATPase activity was 1.4-fold higher than the bottom of the dose curve, mean of a minimum of two independent tests
How it was run: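 Coupled-enzyme ATPase on bovine heart myofibrils, 1 mM ATP, EGTA/CaCl2 buffered; 340 nm readout.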

Row | SMILES | AC1.4
1 | O=C(NCc1ccc(C(F)(F)F)cc1)[C@H]1CCCN1C(=O)[C@H]1CCCN(S(=O)(=O)N2CC(CC(F)(F)F)C2)C1 [Example 787, 1-(((3S)-1-((3-(2,2,2-trifluoroethyl)-1-azetidinyl)sulfonyl)-3-piperidinyl)carbonyl)-N-(4-(trifluoromethyl)benzyl)-D-prolinamide] | 8.931 µM
2 | COCC1CN(S(=O)(=O)N2CCC[C@H](C(=O)N3CCC[C@@H]3C(=O)NCc3ccc(C(F)(F)F)cc3)C2)C1 [Example 788, 1-(((3S)-1-((3-(methoxymethyl)-1-azetidinyl)sulfonyl)-3-piperidinyl)carbonyl)-N-(4-(trifluoromethyl)benzyl)-D-prolinamide] | 8.9395 µM
3 | O=C(N[C@@H](c1ccc(C(F)(F)F)cc1F)C1COC1)[C@H]1C[C@H]2C[C@H]2N1C(=O)c1cccc(C(F)(F)F)n1 [Example 789, (1R,3R,5R)-N-((R)-(2-fluoro-4-(trifluoromethyl)phenyl)(3-oxetanyl)methyl)-2-((6-(trifluoromethyl)-2-pyridinyl)carbonyl)-2-azabicyclo[3.1.0]hexane-3-carboxamide] | 8.9635 µM
4 | N#CC1CN(S(=O)(=O)N2CCN[C@H](C(=O)N3CCC[C@@H]3C(=O)NCc3cc(Cl)cc(Cl)c3)C2)C1 [Example 790, 1-(((2S)-4-((3-cyano-1-azetidinyl)sulfonyl)-2-piperazinyl)carbonyl)-N-(3,5-dichlorobenzyl)-D-prolinamide] | 8.9725 µM
5 | Cc1ccc([C@H](NC(=O)[C@H]2C[C@H](F)CN2C(=O)c2cccc(S(C)(=O)=O)c2)C2CC2)cc1F [Example 792, (4S)-N-((R)-cyclopropyl(3-fluoro-4-methyIphenyl)methyl)-4-fluoro-1-(3-(methylsulfonyl)benzoyl)-D-prolinamide] | 9.071 µM
6 | CCS(=O)(=O)c1cccc(C(=O)N2CCC[C@@H]2C(=O)NCc2ccc(C(F)(F)F)cc2)c1 [Example 793, 1-(3-(ethylsulfonyl)benzoyl)-N-(4-(trifluoromethyl)benzyl)-D-prolinamide] | 9.129 µM
7 | CC(C)(O)c1cccc(C(=O)N2CCC[C@@H]2C(=O)N[C@@H](c2ccc(C(F)(F)F)cc2F)C2CC2)c1 [Example 794, N-((R)-cyclopropyl(2-fluoro-4-(trifluoromethyl)phenyl)methyl)-1-(3-(2-hydroxy-2-propanyl)benzoyl)-D-prolinamide] | 9.2425 µM
8 | CS(=O)(=O)c1cc(C(=O)N2[C@@H](C(=O)N[C@@H](c3ccc(Cl)c(F)c3)C3CC3)C[C@H]3C[C@H]32)ccn1 [Example 795, (1R,3R,5R)-N-((R)-(4-chloro-3-fluorophenyl)(cyclopropyl)methyl)-2-((2-(methylsulfonyl)-4-pyridinyl)carbonyl)-2-azabicyclo[3.1.0]hexane-3-carboxamide] | 9.3255 µM
9 | CC(=O)N1CC(F)(c2cccc(C(=O)N3CCC[C@@H]3C(=O)N[C@@H](c3ccc(C(F)(F)F)cc3F)C3CC3)c2)C1 [Example 796, 1-(3-(l-acetyl-3-fluoro-3-azetidinyl)benzoyl)-N-((R)-cyclopropyl(2-fluoro-4-(trifluoromethyl)phenyl)methyl)-D-prolinamide] | 9.426 µM
10 | Cc1cncc(C(=O)N2[C@@H](C(=O)N[C@@H](c3cc(F)c(C(F)(F)F)cc3F)C3CC3)C[C@H]3C[C@H]32)c1 [Example 797, (1R,3R,5R)-N-((R)-cyclopropyl(2,5-difluoro-4-(trifluoromethyl)phenyl)methyl)-2-((5-methyl-3-pyridinyl)carbonyl)-2-azabicyclo[3.1.0]hexane-3-carboxamide] | 9.447 µM
11 | O=C(NCc1ccc(C(F)(F)F)nc1)[C@H]1CCCCN1C(=O)c1cccc(S(=O)(=O)N2CC(F)(F)C2)c1 [Example 798, (2R)-1-((3-((3,3-difluoro-1-azetidinyl)sulfonyl)phenyl)carbonyl)-N-((6-(trifluoromethyl)-3-pyridinyl)methyl)-2-piperidinecarboxamide] | 9.448 µM
12 | N#CC1CN(S(=O)(=O)N2CCC[C@H](C(=O)N3CCC[C@@H]3C(=O)NC3CCC3C(F)(F)F)C2)C1 (stereo partly drawn) [Example 799, (2R)-1-((S)-1-((3-cyanoazetidin-1-yl)sulfonyl)piperidine-3-carbonyl)-N-(2-(trifluoromethyl)cyclobutyl)pyrrolidine-2-carboxamide] | 9.4535 µM
13 | O=C(NCc1ccc(C(F)(F)F)cc1)[C@H]1CCCN1C(=O)[C@H]1CCCN(S(=O)(=O)N2CCC23CCC3)C1 [Example 800, 1-(((3S)-1-(1-azaspiro[3.3]hept-1-ylsulfonyl)-3-piperidinyl)carbonyl)-N-(4-(trifluoromethyl)benzyl)-D-prolinamide] | 9.537 µM
14 | N#CC1CN(S(=O)(=O)N2CCC[C@H](C(=O)N3[C@@H]4C[C@@H]4C[C@H]3C(=O)NCc3ccc(C(F)(F)F)cc3)C2)C1 [Example 801, (1R,3S,5R)-2-(((3S)-1-((3-cyano-1-azetidinyl)sulfonyl)-3-piperidinyl)carbonyl)-N-(4-(trifluoromethyl)benzyl)-2-azabicyclo[3.1.0]hexane-3-carboxamide] | 9.578 µM
15 | CN(C)S(=O)(=O)c1cccc(C(=O)N2CCC[C@@H]2C(=O)N[C@H](c2ccc(C(F)(F)F)cc2F)C2CC2)c1 [Example 802, N-((S)-cyclopropyl(2-fluoro-4-(trifluoromethyl)phenyl)methyl)-1-(3-(dimethylsulfamoyl)benzoyl)-D-prolinamide] | 9.6005 µM
16 | C[C@H](NC(=O)[C@H]1CCCN1C(=O)[C@H]1CCCN(S(=O)(=O)N2CC(C#N)C2)C1)c1ccc(Cl)cc1 [Example 803, N-((1S)-1-(4-chlorophenyl)ethyl)-1-(((3S)-1-((3-cyano-1-azetidinyl)sulfonyl)-3-piperidinyl)carbonyl)-D-prolinamide] | 9.622 µM
17 | CCC(NC(=O)[C@H]1CCCN1C(=O)[C@H]1CCCN(S(=O)(=O)N2CC(C#N)C2)C1)c1ccccc1OC (stereo partly drawn) [Example 804, (2R)-1-((S)-1-((3-cyanoazetidin-1-yl)sulfonyl)piperidine-3-carbonyl)-N-(1-(2-methoxyphenyl)propyl)pyrrolidine-2-carboxamide] | 9.7525 µM
18 | CS(=O)(=O)c1cc(C(=O)N2CCC[C@@H]2C(=O)N[C@@H](c2ccc(C(F)(F)F)cc2F)C2CC2)ccc1N [Example 805, 1-(4-amino-3-(methylsulfonyl)benzoyl)-N-((R)-cyclopropyl(2-fluoro-4-(trifluoromethyl)phenyl)methyl)-D-prolinamide] | 9.817 µM
19 | CC(=O)N1CC(NS(=O)(=O)N2CCC[C@H](C(=O)N3CCC[C@@H]3C(=O)NCc3ccc(C(F)(F)F)cc3)C2)C1 [Example 806, 1-(((3S)-1-((l-acetyl-3-azetidinyl)sulfamoyl)-3-piperidinyl)carbonyl)-N-(4-(trifluoromethyl)benzyl)-D-prolinamide] | 10 µM
20 | CC(C)[C@@H](NC(=O)[C@H]1CCCN1C(=O)c1cccc(S(C)(=O)=O)c1)c1ccc(C(F)(F)F)cc1F [Example 807, N-((1R)-1-(2-fluoro-4-(trifluoromethyl)phenyl)-2-methylpropyl)-1-(3-(methylsulfonyl)benzoyl)-D-prolinamide] | 4.609 µM
